The results in this text go back to paper PMC5976239 (Journal of medicinal chemistry, 2017).

Data set [1] relates to Candida albicans ATCC 10231 (A). As to the kind of experiment: MIC determination in the presence and absence of FBS. Particulars: strains A, J, and L; +10% FBS versus no FBS. Format: cell-based.
Data set [2] deals with C. glabrata ATCC 2001 (strain H). Briefly: Time-kill assay. Particulars: 24 h, compound 22 at 4× MIC, VOR at 1× and 4× MIC. The class given is cell-based, Candida glabrata.
Data set [3] has as its system C. parapsilosis ATCC 22019 (strain J). As to the kind of experiment: Time-kill assay. The class given is cell-based, Candida parapsilosis. Particulars: 24 h, at up to 8× MIC.
A short description of the next data set: Hemolytic activity assay. Format: cell-based. The following applies: mouse, murine red blood cells (mRBCs).
The test system of the next data set is HEK-293. Briefly: In vitro cytotoxicity assay. Format: cell-based. The following applies: 7.8 µg/mL, 24 h.
Another data set concerns A549. Briefly: In vitro cytotoxicity assay. The following applies: 7.8 µg/mL, 24 h. The class given is cell-based.
In a further data set the test system is BEAS-2B. Briefly: In vitro cytotoxicity assay. The following applies: 7.8 µg/mL, 24 h. The class given is cell-based.
Data set [4] concerns C. albicans ATCC 64124 (strain B) biofilms. Briefly: Biofilm assay.

Structures are written as SMILES.

For `CCCCCCCCCCCCN1CCN(CC(O)(Cn2cncn2)c2ccc(F)cc2F)CC1` (centres unmarked) [Compound 22, 2-(2,4-Difluorophenyl)-1-(1H-1,2,4-triazol-1-yl)-3-(4-dodecylpiperazine)propan-2-ol], the “antifungal activity in the presence of FBS (in words)” value in data set [1] is reported as “retained their full antifungal activity”. Also, the “fungistatic or fungicidal activity (time-kill)” value in data set [2] is “fungicidal”; in data set [3], “fungistatic”. In addition, in the data set “Hemolytic activity assay”, the hemolysis at 60 min, 7.8 µg/mL is over 50%. The cell survival result with HEK-293, in the data set on A549 and in the data set on BEAS-2B was “less than 40%” throughout. For the same compound, the “increase in MIC in biofilms (SMIC50 and SMIC80 versus MIC in liquid cultures)” value in data set [4] was 1–2 fold.
